# Values of other authors as cited in patent US5686420A, “Thyrotropin-releasing hormone analogs and method of use” (Georgetown University, priority 1995, dated 1997).
# Settings: in vivo
smiles,measurement,value
"NC(=O)[C@@H]1CCCN1C(=O)[C@H](Cc1cnc[nH]1)NC(=O)[C@@H]1CCC(=O)N1 [TRH, L-pyroglutamyl-L-histidyl-L-prolineamide]",plasma half-life,4 to 5 min
